Assay results reported in patent publication US10721929B2, “Heterocyclic compound and harmful-arthropod-controlling agent containing same” (Sumitomo Chemical Company, Limited, priority 2016, dated 2020).

Test system: western corn rootworm
Assay: Test Example 5: corn seedling immersion test, western corn rootworm larvae
Format: in vivo
Conditions: Zea mays, 120 h, corn seedlings immersed 30 seconds, ten 2-instar larvae, five days later, read-out: mortality rate of insects
Method: 1 mg of each test compound is dissolved in 50 μL of a mixed solution of polyoxyethylene sorbitan monococoate:acetone=5.95 (volume ratio). To the resultant is added water containing 0.03% by volume of a spreading agent, to prepare a diluted solution containing a predetermined concentration of the test compound.
Seeds of corn (Zea mays) are seeded onto a tray lined with wet Kimwipes, After the corn has grown for 5 days, die entire seedlings are immersed into the diluted solution for 30 seconds. Thereafter, two seedlings are put in a petri dish (diameter of 90 mm), and ten 2-instar larvae of western corn rootworm are released thereinto. Five days later, the number of dead insects is counted, and a mortality rate of insects is calculated by the following expression. Mortality rate of insects (%)=(number of dead insects/10)×100.

## CCSc1c(-c2ccc(OCC(F)(F)C(F)(F)F)cn2)nc2ccc(C(F)(F)F)cn12 [Compound 1]
  mortality at 500 ppm: ≥ 80%
